In brackets after ≈: the same amount, converted by molar mass. Where a name gives a salt, the structure may show the parent alone. Read-outs that look alike come from different tables or passages of the source.
Experiments:
[1] = tested on: leaf discs of tobacco with (GUS+) introduced β-glucuronidase genes; assay type: cell-based, Nicotiana tabacum 'Wisconsin 38'; conditions: test compounds at several concentrations up to 250 μM in MSO
Solubility = assay type: physicochemical; conditions: for solubility: organic solvent or mixture
[2] = tested on: leaf discs of tobacco without (GUS-) introduced β-glucuronidase genes; assay type: cell-based, Nicotiana tabacum 'Wisconsin 38'; conditions: test compounds at several concentrations up to 250 μM in MSO
[3] = biological target: β-glucuronidase from E. coli (Escherichia coli, UniProt P05804); experiment: Hydrolysis by β-glucuronidase (GUS), HPLC/TLC; assay type: biochemical; conditions: 37° C.
Sequence of β-glucuronidase from E. coli (P05804 whole entry, looked up): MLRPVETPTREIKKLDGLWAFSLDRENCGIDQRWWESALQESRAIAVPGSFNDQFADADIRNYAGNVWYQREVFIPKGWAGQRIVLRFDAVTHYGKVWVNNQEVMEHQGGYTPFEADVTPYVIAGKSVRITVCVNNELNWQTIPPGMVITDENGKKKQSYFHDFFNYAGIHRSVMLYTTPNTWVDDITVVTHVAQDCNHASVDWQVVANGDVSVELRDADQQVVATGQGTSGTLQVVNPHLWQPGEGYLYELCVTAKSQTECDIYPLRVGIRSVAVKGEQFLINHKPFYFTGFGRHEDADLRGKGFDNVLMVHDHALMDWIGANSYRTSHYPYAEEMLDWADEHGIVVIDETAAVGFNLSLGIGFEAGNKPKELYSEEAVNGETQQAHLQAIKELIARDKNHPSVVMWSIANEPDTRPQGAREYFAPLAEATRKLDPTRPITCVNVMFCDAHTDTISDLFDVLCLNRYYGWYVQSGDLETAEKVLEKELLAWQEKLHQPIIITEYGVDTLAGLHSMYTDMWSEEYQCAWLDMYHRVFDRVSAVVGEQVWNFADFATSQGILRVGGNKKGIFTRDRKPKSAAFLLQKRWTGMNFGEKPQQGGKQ
Description: […] […] This confirms the identity of the product as a conjugate of BA and β-D-glucuronic acid.
[…] The presence of hydrolysis products is then determined using HPLC and TLC.

[4] = tested on: sugarbeet cotyledon explants; experiment: Effect of D-xylose in sugarbeets with and without light; assay type: cell-based
Description: Sugarbeet is transformed by the so-called cot-pet method as described in PCT Patent Application No. PCT DK92/00108 wherein cotyledons including the petiole are used as explants. Seedlings are derived from seeds germinated and grown for 4-7 weeks at 12° C. in a 16 h day/8 h night regime. Cotyledons are excised 2-3 mm below the node, tawn apart and cultured either in the dark or in light and in the presence or absence of xylose.

[5] = tested on: potato stem segments with pAH-Xyl; experiment: Selection on D-xylose, potato transformed with pAH-Xyl; assay type: cell-based
Description: (§1) Shoots are regenerated from potato stem segments treated with various concentrations of sucrose and D-xylose. The number of shoots are counted after 11 weeks of selection. 105 explants are tested per treatment.

potato stem segments [6] = experiment: Carbohydrate sources, potato stem segments, 9 weeks; assay type: cell-based; conditions: for # of Shoots per explant / activity at 5000 µg/mL / activity at 10000 µg/mL: 9 weeks; for activity at 5000 µg/mL / activity at 10000 µg/mL: Solanum tuberosum
From the text: Similar results are observed with potato stem segments after 9 weeks of culturing.

[7] = tested on: potato stem segments with control (Kanamycin resistant gene); experiment: Selection on D-xylose, potato transformed with control (kanamycin resistant gene); assay type: cell-based
Description: as §1

potato stem segments [8] = experiment: D-xylose as carbohydrate source during shoot regeneration; assay type: cell-based
Description: Explants are produced and treated as described above under "selection of transformed tissue", except that the selection/regeneration substrate was not supplemented with kanamycin or cabenicillin, and that plant tissue is not transformed. Thus the only subcultivation step is when the explants are transferred from the co-cultivation substrate to the selection/regeneration substrate which is supplemented with xylose at the concentrations indicated below. The number of regenerated shoots is recorded after 12 weeks.

Wild type explants = experiment: Shoot regeneration on mannose, sucrose and methyl-3-O-glucose, wild type; assay type: cell-based; conditions: sucrose 10 g/l, no mannose, no methyl 3O-glucose; Wild type tissue
explants = experiment: Inhibition of the toxicity of mannose by methyl-3-O-glucose; assay type: cell-based; conditions: MOG 0 g/l; mannose 0 g/l; sucrose 10 g/l
From the text: Example 25 is repeated except that the selection/regeneration substrate is supplemented with methyl 3-0-glucose (MOG) at the concentrations indicated in Table 25. The percentage of live explants is registered after 8 weeks.

[9] = tested on: non-transformed potato stem segments; experiment: Inhibition by mannose of regeneration of shoots; assay type: cell-based, Solanum tuberosum; conditions: mannose 0 g/l
Description: This substrate is referred to hereafter as "selection/regeneration substrate". Regenerated plants are produced as described above, except that the shoot segments are not co-cultured with bacteria and the washing procedure consequential thereon is omitted. […] In general, mannose cannot be used as a carbohydrate source in most plant species. When mannose is added to plants it is metabolized and mannose 6-phosphate accumulates. Mannose 6-phosphate can be converted to fructose 6-phosphate by mannose 6-phosphate isomerase, the amount converted being dependent upon the activity of the isomerase. Such fructose 6-phosphate may be utilized by plants, but in principal high levels of mannose (whether or not an alternative carbohydrate source is available) are toxic to plants.

[10] = tested on: explants transgenic for the mannose 6-phosphate isomerase gene; experiment: Shoot regeneration on mannose, sucrose and methyl-3-O-glucose, Man-6-P-isomerase; assay type: cell-based; conditions: sucrose 10 g/l, no mannose, no methyl 3O-glucose; Transgenic tissue
[11] = D-xylose 10 g/l, sucrose 0 g/l, 2 weeks in dark and 1 week in light
[12] = D-xylose 10 g/l, sucrose 0 g/l, 3 weeks light
[13] = D-xylose 10 g/l, sucrose 10 g/l, 2 weeks in dark and 1 week in light
[14] = D-xylose 10 g/l, sucrose 10 g/l, 3 weeks light
[15] = sucrose 2.5 g/l, D-xylose 2.5 g/l
[16] = sucrose 2.5 g/l, D-xylose 2.5 g/l, 11 weeks, 105 explants
[17] = sucrose 2.5 g/l, D-xylose 5.0 g/l
[18] = sucrose 2.5 g/l, D-xylose 7.5 g/l
[19] = sucrose 5.0 g/l, D-xylose 2.5 g/l
[20] = sucrose 5.0 g/l, D-xylose 5.0 g/l
[21] = sucrose 5.0 g/l, D-xylose 7.5 g/l
[22] = sucrose 10.0 g/l, D-xylose 2.5 g/l
[23] = sucrose 10.0 g/l, D-xylose 5.0 g/l
[24] = sucrose 10.0 g/l, D-xylose 7.5 g/l
[25] = 10 g/l, read-out: Size % of control
[26] = 10 g/l, read-out: explants alive % of control
[27] = D-xylose 0 g/l, sucrose 10 g/l, 2 weeks in dark and 1 week in light
[28] = D-xylose 0 g/l, sucrose 10 g/l, 3 weeks light

NC(=O)[C@H]1O[C@@H](n2cnc(NCc3ccccc3)c3ncnc2-3)[C@H](O)[C@@H](O)[C@@H]1O [BA3GNamide, 3-β-D-glucupyranuronamido-6-benzylaminopurine]
Shoot formation, GUS+ [1]: + ("+" means shoot formation at concentrations below 250 μM) | solubility (Solubility; 50% aqueous methanol containing 25% acetic acid): 2400 µg/mL (≈ 5.99 mM) | solubility in words (Solubility; water or alcohol): only sparingly soluble | Shoot formation, GUS- [2]: + ("+" means shoot formation at concentrations below 250 μM)

O=C(O)C=Cc1ccccc1O[C@@H]1O[C@H](C(=O)O)[C@@H](O)[C@H](O)[C@H]1O [CouGN, 2-hydroxycinnamyl-β-D-glucopyranuronic acid]
solubility (Solubility; aqueous buffer and 50% alcohol, aqueous buffer, pH 7, and 50% aqueous alcohol): 5000 µg/mL (≈ 14.7 mM) | conversion to o-coumaric acid by GUS ([3]; 5 mg in 1 ml, 1000 units Sigma Type G5897, 12 hours, TLC): 93.4%

O=C[C@H](O)[C@@H](O)[C@H](O)CO [D-xylose]
% expl. with shoots [4, 11]: 13% | Green (%) [4, 11]: 77% | weight (wet) [4, 11]: 0.37 g | % expl. with shoots [4, 12]: 90% | Green (%) [4, 12]: 90% | weight (wet) [4, 12]: 1.53 g | % expl. with shoots [4, 13]: 80% | Green (%) [4, 13]: 97% | weight (wet) [4, 13]: 0.89 g | % expl. with shoots [4, 14]: 97% | Green (%) [4, 14]: 100% | weight (wet) [4, 14]: 5.47 g | GUS+ Shoots [5, 15]: 0 | GUS+ Shoots/explants [5, 15]: 0 | No. Shoots [5, 16]: 0 | GUS+ Shoots [5, 17]: 0 | GUS+ Shoots/explants [5, 17]: 0 | No. Shoots [5, 17]: 0 | GUS+ Shoots [5, 18]: 0 | GUS+ Shoots/explants [5, 18]: 0 | No. Shoots [5, 18]: 0 | GUS+ Shoots [5, 19]: 0 | GUS+ Shoots/explants [5, 19]: 0 | No. Shoots [5, 19]: 0 | GUS+ Shoots [5, 20]: 0 | GUS+ Shoots/explants [5, 20]: 0 | No. Shoots [5, 20]: 0 | GUS+ Shoots [5, 21]: 0 | GUS+ Shoots/explants [5, 21]: 0 | No. Shoots [5, 21]: 0 | GUS+ Shoots [5, 22]: 5 | GUS+ Shoots/explants [5, 22]: 0.05 | GUS+ shoots/no. Shoots (%) [5, 22]: 6% | No. Shoots [5, 22]: 84 | GUS+ Shoots [5, 23]: 0 | GUS+ Shoots/explants [5, 23]: 0 | GUS+ shoots/no. Shoots (%) [5, 23]: 0% | No. Shoots [5, 23]: 20 | GUS+ Shoots [5, 24]: 4 | GUS+ Shoots/explants [5, 24]: 0.04 | GUS+ shoots/no. Shoots (%) [5, 24]: 57.1% | No. Shoots [5, 24]: 7 | # of Shoots per explant (potato stem segments [6]; 5 g/l): 0 | # of Shoots per explant (potato stem segments [6]; 10 g/l): 0 | activity at 5000 µg/mL (potato stem segments [6]; 5 g/l, read-out: Size % of control): 17% | activity at 5000 µg/mL (potato stem segments [6]; 5 g/l, read-out: explants alive % of control): 0% | activity at 10000 µg/mL (potato stem segments [6]; [25]): 13% | activity at 10000 µg/mL (potato stem segments [6]; [26]): 0% | effect on shoot regeneration, in words (potato stem segments [6]; potato stem segments when sucrose is present): inhibitor of shoot regeneration | GUS+ Shoots [7, 15]: 0 | GUS+ Shoots/explants [7, 15]: 0 | No. Shoots [7, 16]: 0 | GUS+ Shoots [7, 17]: 0 | GUS+ Shoots/explants [7, 17]: 0 | No. Shoots [7, 17]: 0 | GUS+ Shoots [7, 18]: 0 | GUS+ Shoots/explants [7, 18]: 0 | No. Shoots [7, 18]: 0 | GUS+ Shoots [7, 19]: 0 | GUS+ Shoots/explants [7, 19]: 0 | No. Shoots [7, 19]: 0 | GUS+ Shoots [7, 20]: 0 | GUS+ Shoots/explants [7, 20]: 0 | No. Shoots [7, 20]: 0 | GUS+ Shoots [7, 21]: 0 | GUS+ Shoots/explants [7, 21]: 0 | No. Shoots [7, 21]: 0 | GUS+ Shoots [7, 22]: 0 | GUS+ Shoots/explants [7, 22]: 0 | GUS+ shoots/no. Shoots (%) [7, 22]: 0% | No. Shoots [7, 22]: 32 | GUS+ Shoots [7, 23]: 0 | GUS+ shoots/no. Shoots (%) [7, 23]: 0% | No. Shoots [7, 23]: 5 | GUS+ Shoots [7, 24]: 0 | GUS+ Shoots/explants [7, 24]: 0 | GUS+ shoots/no. Shoots (%) [7, 24]: 0% | No. Shoots [7, 24]: 2 | inhibition of shoot regeneration, in words (potato stem segments [8]; when sucrose is present, compared to D-mannose): weak inhibitor of shoot regeneration | Number of regenerated shoots each stem segment (potato stem segments [8]; xylose 5 g/l, sucrose 0 g/l, 12 weeks): 0 | Number of regenerated shoots each stem segment (potato stem segments [8]; xylose 5 g/l, sucrose 10 g/l): 3 | Number of regenerated shoots each stem segment (potato stem segments [8]; xylose 10 g/l, sucrose 0 g/l): 0 | Number of regenerated shoots each stem segment (potato stem segments [8]; xylose 10 g/l, sucrose 10 g/l): 0 | Number of regenerated shoots each stem segment (potato stem segments [8]; xylose 20 g/l, sucrose 0 g/l): 0 | Number of regenerated shoots each stem segment (potato stem segments [8]; xylose 20 g/l, sucrose 10 g/l): 0

CC(C)=CCNc1nc(S[C@@H]2O[C@H](C(=O)O)[C@@H](O)[C@H](O)[C@H]2O)nc2[nH]cnc12 [IP2SGN sodium salt, 6-(3-methyl-but-2-enylamino)purine-2-yl-1-thio-β-D-glucopyranuronic acid, sodium salt]
Shoot formation, GUS+ [1]: + ("+" means shoot formation at concentrations below 250 μM) | solubility in words (Solubility; 50% aqueous alcohol): sparingly soluble | Shoot formation, GUS- [2]: + ("+" means shoot formation at concentrations below 250 μM) | partial removal of the glucuronide by GUS ([3]; 2500 Fishman units, 48 hours, HPLC): 65%

OC[C@H]1O[C@@](CO)(O[C@H]2O[C@H](CO)[C@@H](O)[C@H](O)[C@H]2O)[C@@H](O)[C@@H]1O [sucrose]
% expl. with shoots [4, 27]: 50% | Green (%) [4, 27]: 97% | weight (wet) [4, 27]: 1.38 g | % expl. with shoots [4, 28]: 98% | Green (%) [4, 28]: 100% | weight (wet) [4, 28]: 7.41 g | # of Shoots per explant (potato stem segments [6]; 10 g/l): 2.8 | activity at 10000 µg/mL (potato stem segments [6]; [25]): 100% | activity at 10000 µg/mL (potato stem segments [6]; [26]): 100% | Regeneration of shoots (Wild type explants): 1.7 shoots/explant | percentage of live explants (explants): 100 | Regenerated shoots/explant (%) ([9]; sucrose 10 g/l): 50% | Regenerated shoots/explant (%) ([9]; sucrose 20 g/l): 53% | Regeneration of shoots [10]: 1.4 shoots/explant | Number of regenerated shoots each stem segment (potato stem segments [8]; xylose 0 g/l, sucrose 10 g/l): 6

— patent US5994629A, “Positive selection” (priority 1991, dated 1999)
